Source: US7202282B2, “Microemulsions for selective molecular separation” (University of Florida, priority 2002, dated 2007)

Experiment: selective molecular separation (partitioning) of local anesthetics by a microemulsion having an electron deficient aromatic ring
Format: physicochemical
Conditions: microemulsion with electron deficient ring oil, e.g. 1,3 di(trifluoromethyl) benzene
From the text: In one embodiment, the materials and/or methods of the subject invention can be used to separate drugs of the same class. A specific embodiment involves separating local anesthetics. […] This is accomplished by exploiting differences in electron density in π electron orbitals.
In these molecules, the π electron orbitals are aligned at right angles to the planar surface of the benzene rings. Differences in substitution by the side chain in cocaine or bupivacaine cause either electron depletion (δ^+) or enrichment (δ^−). Such characteristics can be used to selectively separate these molecules.
According to the subject invention, any oil or “mating” molecule with a benzene ring is acceptable in providing a microemulsion system, as long as the substitutions are electron withdrawing from the benzene ring into the side chains. In this case, the electron deficient ring is a component of a molecule (e.g., 1,3 di(trifluoromethyl) benzene) that, at room and physiological temperatures, is an oil (FIG. 3). Thus, these oil molecules can be used to construct the lipid core of a microemulsion or may be added as solutes into the lipid core of a microemulsion wherein another oil serves as the lipid core.

partitioning into the microemulsion (molecular separation, FIG. 4): selectively partition
SMILES: CCCCN1CCCCC1C(=O)Nc1c(C)cccc1C (stereo not shown) [bupivacaine]
